According to PubChem BioAssay AID1259407 (Chemical Carcinogenesis Research Information System (CCRIS), 2018):
Calls of active or inactive are those of the source. The rule behind the calls is not given here.

System: CCRIS mutagenicity, Ames/micronucleus/aberration tests
Experiment: CCRIS mutagenicity studies
[1] = Test System: AMES SALMONELLA TYPHIMURIUM, Strain/Indicator: TA98, Metabolic Activation: NONE, Method: PREINCUBATION
[2] = Test System: AMES SALMONELLA TYPHIMURIUM, Strain/Indicator: TA100, Metabolic Activation: NONE, Method: PREINCUBATION
[3] = Test System: AMES SALMONELLA TYPHIMURIUM, Strain/Indicator: TA100, Metabolic Activation: NONE, Method: STANDARD PLATE
[4] = Test System: AMES SALMONELLA TYPHIMURIUM, Strain/Indicator: TA98, Metabolic Activation: NONE, Method: STANDARD PLATE
[5] = Test System: AMES SALMONELLA TYPHIMURIUM, Strain/Indicator: TA1538, Metabolic Activation: NONE, Method: STANDARD PLATE
[6] = Test System: AMES SALMONELLA TYPHIMURIUM, Strain/Indicator: TA98, Metabolic Activation: RAT, LIVER, S-9, AROCLOR 1254, Method: STANDARD PLATE
[7] = Test System: AMES SALMONELLA TYPHIMURIUM, Strain/Indicator: TA100, Metabolic Activation: RAT, LIVER, S-9, AROCLOR 1254, Method: STANDARD PLATE
[8] = Test System: AMES SALMONELLA TYPHIMURIUM, Strain/Indicator: TA1538, Metabolic Activation: RAT, LIVER, S-9, AROCLOR 1254, Method: STANDARD PLATE

## COc1ccc2cc([C@H](C)C(=O)O)ccc2c1
Test System: AMES SALMONELLA TYPHIMURIUM, Strain/Indicator: TA97A, Metabolic Activation: NONE, Method: STANDARD PLATE
  mutagenic call: inactive; negative
Test System: AMES SALMONELLA TYPHIMURIUM, Strain/Indicator: TA97A, Metabolic Activation: RAT, LIVER, S-9, PHENOBARBITAL, Method: STANDARD PLATE
  mutagenic call: inactive; negative
Test System: AMES SALMONELLA TYPHIMURIUM, Strain/Indicator: TA98, Metabolic Activation: GUINEA PIG, LIVER, S-9, PCB, Method: PREINCUBATION
  mutagenic call: inactive; negative
Test System: AMES SALMONELLA TYPHIMURIUM, Strain/Indicator: TA98, Metabolic Activation: HAMSTER, LIVER, S-9, PCB, Method: PREINCUBATION
  mutagenic call: inactive; negative
Test System: AMES SALMONELLA TYPHIMURIUM, Strain/Indicator: TA98, Metabolic Activation: MOUSE, LIVER, S-9, PCB, Method: PREINCUBATION
  mutagenic call: inactive; negative
[1]
  mutagenic call: inactive; negative
Test System: AMES SALMONELLA TYPHIMURIUM, Strain/Indicator: TA98, Metabolic Activation: RAT, LIVER, S-9, PCB, Method: PREINCUBATION
  mutagenic call: inactive; negative
Test System: AMES SALMONELLA TYPHIMURIUM, Strain/Indicator: TA98, Metabolic Activation: RAT, LIVER, S-9, PCB, Method: STANDARD PLATE
  mutagenic call: inactive; negative
Test System: AMES SALMONELLA TYPHIMURIUM, Strain/Indicator: TA100, Metabolic Activation: GUINEA PIG, LIVER, S-9, PCB, Method: PREINCUBATION
  mutagenic call: inactive; negative
Test System: AMES SALMONELLA TYPHIMURIUM, Strain/Indicator: TA100, Metabolic Activation: HAMSTER, LIVER, S-9, PCB, Method: PREINCUBATION
  mutagenic call: inactive; negative
Test System: AMES SALMONELLA TYPHIMURIUM, Strain/Indicator: TA100, Metabolic Activation: MOUSE, LIVER, S-9, PCB, Method: PREINCUBATION
  mutagenic call: inactive; negative
[2]
  mutagenic call: inactive; negative
[3]
  mutagenic call: inactive; negative
Test System: AMES SALMONELLA TYPHIMURIUM, Strain/Indicator: TA100, Metabolic Activation: RAT, LIVER, S-9, PCB, Method: PREINCUBATION
  mutagenic call: inactive; negative
Test System: AMES SALMONELLA TYPHIMURIUM, Strain/Indicator: TA100, Metabolic Activation: RAT, LIVER, S-9, PCB, Method: STANDARD PLATE
  mutagenic call: inactive; negative
Test System: AMES SALMONELLA TYPHIMURIUM, Strain/Indicator: TA100, Metabolic Activation: RAT, LIVER, S-9, PHENOBARBITAL, Method: STANDARD PLATE
  mutagenic call: inactive; negative
Test System: AMES SALMONELLA TYPHIMURIUM, Strain/Indicator: TA102, Metabolic Activation: NONE, Method: STANDARD PLATE
  mutagenic call: inactive; negative
Test System: AMES SALMONELLA TYPHIMURIUM, Strain/Indicator: TA102, Metabolic Activation: RAT, LIVER, S-9, PHENOBARBITAL, Method: STANDARD PLATE
  mutagenic call: inactive; negative
Test System: AMES SALMONELLA TYPHIMURIUM, Strain/Indicator: TA1537, Metabolic Activation: RAT, LIVER, S-9, PCB, Method: STANDARD PLATE
  mutagenic call: inactive; negative
Test System: AMES SALMONELLA TYPHIMURIUM, Strain/Indicator: TA1538, Metabolic Activation: RAT, LIVER, S-9, PCB, Method: STANDARD PLATE
  mutagenic call: inactive; negative
Test System: E. COLI, Strain/Indicator: WP2 UVRA, Metabolic Activation: RAT, LIVER, S-9, PCB, Method: STANDARD PLATE
  mutagenic call: inactive; negative

## CNc1ccc(Cl)cc1
Test System: UDS RODENT HEPATOCYTES, Strain/Indicator: THY INCORP (NON-S-PHASE), Metabolic Activation: NONE, Method: AUTORADIOGRAPHY
  mutagenic call: active; positive

## CC(=O)[C@]1(O)Cc2c(O)c3c(c(O)c2[C@@H](O[C@H]2C[C@H](N)[C@H](O)[C@H](C)O2)C1)C(=O)c1ccccc1C3=O
Test System: AMES SALMONELLA TYPHIMURIUM, Strain/Indicator: GW257, Metabolic Activation: NONE, Method: STANDARD PLATE
  mutagenic call: active; positive
[4]
  mutagenic call: active; positive
[3]
  mutagenic call: active; positive
[5]
  mutagenic call: active; positive
Test System: CHINESE HAMSTER V-79, Strain/Indicator: V-79/6-THIOGUANINE, Metabolic Activation: NONE, Method: SUSPENSION/PLATE
  mutagenic call: active; positive
Test System: UDS RAT HEPATOCYTES, Strain/Indicator: THY INCORP, Metabolic Activation: NONE, Method: AUTOMATIC COLONY COUNTER
  mutagenic call: active; positive

## CCCCN
Test System: AMES SALMONELLA TYPHIMURIUM, Strain/Indicator: TA98, Metabolic Activation: HAMSTER, LIVER, S-9, AROCLOR 1254 (10%), Method: PREINCUBATION
  mutagenic call: inactive; negative
[1]
  mutagenic call: inactive; negative
Test System: AMES SALMONELLA TYPHIMURIUM, Strain/Indicator: TA98, Metabolic Activation: RAT, LIVER, S-9, AROCLOR 1254 (10%), Method: PREINCUBATION
  mutagenic call: inactive; negative
Test System: AMES SALMONELLA TYPHIMURIUM, Strain/Indicator: TA100, Metabolic Activation: HAMSTER, LIVER, S-9, AROCLOR 1254 (10%), Method: PREINCUBATION
  mutagenic call: inactive; negative
[2]
  mutagenic call: inactive; negative
Test System: AMES SALMONELLA TYPHIMURIUM, Strain/Indicator: TA100, Metabolic Activation: RAT, LIVER, S-9, AROCLOR 1254 (10%), Method: PREINCUBATION
  mutagenic call: inactive; negative
Test System: AMES SALMONELLA TYPHIMURIUM, Strain/Indicator: TA1535, Metabolic Activation: HAMSTER, LIVER, S-9, AROCLOR 1254 (10%), Method: PREINCUBATION
  mutagenic call: inactive; negative
Test System: AMES SALMONELLA TYPHIMURIUM, Strain/Indicator: TA1535, Metabolic Activation: NONE, Method: PREINCUBATION
  mutagenic call: inactive; negative
Test System: AMES SALMONELLA TYPHIMURIUM, Strain/Indicator: TA1535, Metabolic Activation: RAT, LIVER, S-9, AROCLOR 1254 (10%), Method: PREINCUBATION
  mutagenic call: inactive; negative
Test System: AMES SALMONELLA TYPHIMURIUM, Strain/Indicator: TA1537, Metabolic Activation: HAMSTER, LIVER, S-9, AROCLOR 1254 (10%), Method: PREINCUBATION
  mutagenic call: inactive; negative
Test System: AMES SALMONELLA TYPHIMURIUM, Strain/Indicator: TA1537, Metabolic Activation: NONE, Method: PREINCUBATION
  mutagenic call: inactive; negative
Test System: AMES SALMONELLA TYPHIMURIUM, Strain/Indicator: TA1537, Metabolic Activation: RAT, LIVER, S-9, AROCLOR 1254 (10%), Method: PREINCUBATION
  mutagenic call: inactive; negative

## COc1ccc(C(=O)[C@@H]2O[C@@H]2c2ccccc2)cc1
[4]
  mutagenic call: inactive; negative
[6]
  mutagenic call: inactive; negative
[3]
  mutagenic call: inactive; negative
[7]
  mutagenic call: inactive; negative

## FC(F)C(F)(F)F
[4]
  mutagenic call: inactive; negative
[6]
  mutagenic call: inactive; negative
[3]
  mutagenic call: inactive; negative
[7]
  mutagenic call: inactive; negative
Test System: AMES SALMONELLA TYPHIMURIUM, Strain/Indicator: TA1535, Metabolic Activation: NONE, Method: STANDARD PLATE
  mutagenic call: inactive; negative
Test System: AMES SALMONELLA TYPHIMURIUM, Strain/Indicator: TA1535, Metabolic Activation: RAT, LIVER, S-9, AROCLOR 1254, Method: STANDARD PLATE
  mutagenic call: inactive; negative
Test System: AMES SALMONELLA TYPHIMURIUM, Strain/Indicator: TA1537, Metabolic Activation: NONE, Method: STANDARD PLATE
  mutagenic call: inactive; negative
Test System: AMES SALMONELLA TYPHIMURIUM, Strain/Indicator: TA1537, Metabolic Activation: RAT, LIVER, S-9, AROCLOR 1254, Method: STANDARD PLATE
  mutagenic call: inactive; negative
[5]
  mutagenic call: inactive; negative
[8]
  mutagenic call: inactive; negative
Test System: E. COLI, Strain/Indicator: WP2 UVRA, Metabolic Activation: NONE, Method: STANDARD PLATE
  mutagenic call: inactive; negative
Test System: E. COLI, Strain/Indicator: WP2 UVRA, Metabolic Activation: RAT, LIVER, S-9, AROCLOR 1254, Method: STANDARD PLATE
  mutagenic call: inactive; negative

## CCOc1cc(N=Nc2ccc(N(CCO)CCO)cc2)ccc1N=Nc1c(S(=O)(=O)O)cc2ccc(N)cc2c1O
[4]
  mutagenic call: inactive; negative
[6]
  mutagenic call: active; positive
[3]
  mutagenic call: inactive; negative
[7]
  mutagenic call: inactive; negative
[8]
  mutagenic call: active; positive
